Results: patent publication US20200181117A1, “SUBSTITUTED 3-HETEROARYLOXY-1H-PYRAZOLES AND SALTS THEREOF AND THEIR USE AS HERBICIDAL ACTIVE SUBSTANCES” (BAYER CROPSCIENCE AKTIENGESELLSCHAFT, priority 2017, published 2020)

Experiments:
Format in all cases: in vivo
Stellaria media [1] = assay: Pre-emergence herbicidal action; conditions: 1280 g/ha, scored visually after about 3 weeks vs untreated controls
Method in brief: (§1)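 Soil-applied pre-emergence test: WP/EC formulations in water (600 l/ha, 0.5% additive) at 1280 g/ha on covered seeds; greenhouse; visual % rating at ~3 weeks, 100% meaning dead plants.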

Setaria viridis [2] = assay: Pre-emergence herbicidal action; conditions: 1280 g/ha, scored visually after about 3 weeks vs untreated controls
Method in brief: as §1

Alopecurus myosuroides [3] = assay: Pre-emergence herbicidal action; conditions: 1280 g/ha, scored visually after about 3 weeks vs untreated controls
Method in brief: as §1

Abutilon theophrasti [4] = assay: Pre-emergence herbicidal action; conditions: 1280 g/ha, scored visually after about 3 weeks vs untreated controls
Method in brief: as §1

Amaranthus retroflexus [5] = assay: Pre-emergence herbicidal action; conditions: 1280 g/ha, scored visually after about 3 weeks vs untreated controls
Method in brief: as §1

Hordeum murinum = assay: Pre-emergence herbicidal action; conditions: 1280 g/ha, scored visually after about 3 weeks vs untreated controls
Method in brief: as §1

Viola tricolor [6] = assay: Pre-emergence herbicidal action; conditions: 1280 g/ha, scored visually after about 3 weeks vs untreated controls
Method in brief: as §1

Echinochloa crus-galli [7] = assay: Pre-emergence herbicidal action; conditions: 1280 g/ha, scored visually after about 3 weeks vs untreated controls
Method in brief: as §1

Matricaria inodora = assay: Pre-emergence herbicidal action; conditions: 1280 g/ha, scored visually after about 3 weeks vs untreated controls
Method in brief: as §1

Lolium rigidum = assay: Pre-emergence herbicidal action; conditions: 1280 g/ha, scored visually after about 3 weeks vs untreated controls
Method in brief: as §1

Avena fatua = assay: Pre-emergence herbicidal action; conditions: 1280 g/ha, scored visually after about 3 weeks vs untreated controls
Method in brief: as §1

Stellaria media [8] = assay: Post-emergence herbicidal action; conditions: 1280 g/ha, rated visually after about 3 weeks vs untreated controls
Method in brief: (§2)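 Greenhouse post-emergence spray at one-leaf stage, 1280 g/ha, 600 l/ha water with 0.5% additive; efficacy rated visually after roughly 3 weeks, 0% meaning like controls and 100% meaning dead plants.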

Setaria viridis [9] = assay: Post-emergence herbicidal action; conditions: 1280 g/ha, rated visually after about 3 weeks vs untreated controls
Method in brief: as §2

Alopecurus myosuroides [10] = assay: Post-emergence herbicidal action; conditions: 1280 g/ha, rated visually after about 3 weeks vs untreated controls
Method in brief: as §2

Abutilon theophrasti [11] = assay: Post-emergence herbicidal action; conditions: 1280 g/ha, rated visually after about 3 weeks vs untreated controls
Method in brief: as §2

Amaranthus retroflexus [12] = assay: Post-emergence herbicidal action; conditions: 1280 g/ha, rated visually after about 3 weeks vs untreated controls
Method in brief: as §2

Veronica persica [13] = assay: Post-emergence herbicidal action; conditions: 1280 g/ha, rated visually after about 3 weeks vs untreated controls
Method in brief: as §2

Viola tricolor [14] = assay: Post-emergence herbicidal action; conditions: 1280 g/ha, rated visually after about 3 weeks vs untreated controls
Method in brief: as §2

Pharbitis purpurea = assay: Post-emergence herbicidal action; conditions: 1280 g/ha, rated visually after about 3 weeks vs untreated controls
Method in brief: as §2

Polygonum convolvulus [15] = assay: Pre-emergence herbicidal action; conditions: 1280 g/ha, scored visually after about 3 weeks vs untreated controls
Method in brief: as §1

Veronica persica [16] = assay: Pre-emergence herbicidal action; conditions: 1280 g/ha, scored visually after about 3 weeks vs untreated controls
Method in brief: as §1

Polygonum convolvulus [17] = assay: Post-emergence herbicidal action; conditions: 1280 g/ha, rated visually after about 3 weeks vs untreated controls
Method in brief: as §2

Echinochloa crus-galli [18] = assay: Post-emergence herbicidal action; conditions: 1280 g/ha, rated visually after about 3 weeks vs untreated controls
Method in brief: as §2

Row | Compound | herbicidal activity on Stellaria media (Stellaria media [1]) [%] | herbicidal activity on Setaria viridis (Setaria viridis [2]) [%] | herbicidal activity on Alopecurus myosuroides (Alopecurus myosuroides [3]) [%] | herbicidal activity on Abutilon theophrasti (Abutilon theophrasti [4]) [%] | herbicidal activity on Amaranthus retroflexus (Amaranthus retroflexus [5]) [%] | herbicidal activity on Hordeum murinum (Hordeum murinum) [%] | herbicidal activity on Viola tricolor (Viola tricolor [6]) [%] | herbicidal activity on Echinochloa crus-galli (Echinochloa crus-galli [7]) [%] | herbicidal activity on Matricaria inodora (Matricaria inodora) [%] | herbicidal activity on Avena fatua (Avena fatua) [%] | herbicidal activity on Stellaria media (Stellaria media [8]) [%] | herbicidal activity on Setaria viridis (Setaria viridis [9]) [%] | herbicidal activity on Alopecurus myosuroides (Alopecurus myosuroides [10]) [%] | herbicidal activity on Abutilon theophrasti (Abutilon theophrasti [11]) [%] | herbicidal activity on Amaranthus retroflexus (Amaranthus retroflexus [12]) [%] | herbicidal activity on Veronica persica (Veronica persica [13]) [%] | herbicidal activity on Viola tricolor (Viola tricolor [14]) [%] | herbicidal activity on Pharbitis purpurea (Pharbitis purpurea) [%] | herbicidal activity on Polygonum convolvulus (Polygonum convolvulus [15]) [%] | herbicidal activity on Polygonum convolvulus (Polygonum convolvulus [17]) [%] | further results
1 | CCc1c(Sc2ccccc2)c(Oc2ncc(F)cn2)nn1C [Example I-155] | 100 | 100 | 100 | 100 | 100 | 100 | 100 | 90 | 100 | 100 | 90 | 80 | 90 | 80 | 100 | 100 | 100 | 80 | – | – | herbicidal activity on Lolium rigidum (Lolium rigidum): 80%
2 | Cn1cc(Sc2ccccc2)c(Oc2ncc(Cl)cn2)n1 [Example I-120] | 100 | – | 90 | 100 | 80 | – | 100 | 100 | – | – | 90 | 80 | 90 | – | 80 | 80 | 100 | – | 80 | 100 | herbicidal activity on Veronica persica (Veronica persica [16]): 100%
3 | Cc1c(Sc2ccc(F)cc2)c(Oc2ncccn2)nn1C [Example I-087] | – | 100 | – | 100 | 100 | – | 100 | 80 | 90 | 80 | 100 | 90 | 90 | 80 | 100 | 100 | 100 | 80 | 90 | 100 | herbicidal activity on Veronica persica (Veronica persica [16]): 100%
4 | Fc1ccc(Sc2c(Oc3ncc(F)cn3)nn3c2CCOCC3)cc1 [Example I-122] | 100 | 100 | 100 | 100 | 100 | 90 | 100 | 100 | 100 | 80 | 90 | 100 | 90 | 100 | – | 90 | 90 | 90 | 100 | 100 | herbicidal activity on Veronica persica (Veronica persica [16]): 100%; herbicidal activity on Echinochloa crus-galli (Echinochloa crus-galli [18]): 90%
5 | CCc1c(Sc2ccc(F)cc2)c(Oc2ncc(F)cn2)nn1C [Example I-183] | 100 | 100 | 100 | 100 | 100 | 100 | 100 | 100 | 100 | – | 90 | 100 | 90 | 90 | 100 | 90 | 100 | 100 | 100 | 90 | herbicidal activity on Lolium rigidum (Lolium rigidum): 100%; herbicidal activity on Echinochloa crus-galli (Echinochloa crus-galli [18]): 90%
6 | CCc1c(Sc2ccc(F)cc2F)c(Oc2ncccn2)nn1C [Example I-136] | 100 | 100 | 100 | 100 | 100 | – | 100 | 90 | 100 | 90 | 90 | – | – | 90 | 100 | 100 | 100 | – | 100 | – | herbicidal activity on Lolium rigidum (Lolium rigidum): 100%
7 | Fc1ccc(Sc2c(Oc3ncccn3)nn3c2CCOCC3)c(F)c1 [Example I-163] | 90 | 100 | 90 | 100 | 90 | 90 | 100 | 100 | 100 | – | 80 | 90 | 90 | 90 | – | 80 | 90 | 90 | 100 | 100 | herbicidal activity on Veronica persica (Veronica persica [16]): 90%; herbicidal activity on Echinochloa crus-galli (Echinochloa crus-galli [18]): 90%
